Literature values, collected in patent US20180353540A1, “Pharmaceutical composition for treating leukemia and preparation method thereof” (Yi Fan Pharmaceutical Academy (Beijing) Co., Ltd., priority 2015, published 2018).

What was measured:
ME180 cells = conditions: non-toxic dose 0.5 μg/ml
HL-6 cells = conditions: non-toxic dose 0.5 μg/ml
[1] = system: SGC7901 human gastric adenocarcinoma cells

SMILES | expression of c-myc and H-ras oncogenes (RNA dot blot hybridization) (ME180 cells; ME180 cell line) | induced differentiation effect on ME180 cells (ME180 cells) | effect on HL-6 cells (differentiation, maturation, apoptosis) (HL-6 cells) | growth of SGC7901 human gastric adenocarcinoma cells in vitro [1]
Cc1coc2c1C(=O)C(=O)c1c-2ccc2c1CCCC2(C)C [tanshinone IIA] | significantly reduced | better induced differentiation effects | can induce differentiation and maturation of tumor cells, accompanied by apoptosis | significantly inhibits the growth
CC1=C(/C=C/C(C)=C/C=C/C(C)=C/C(=O)O)C(C)(C)CCC1 [ATRA, all-trans retinoic acid] | – | better induced differentiation effects | – | –
